Data as given in ChEMBL document CHEMBL1141373 (J Med Chem, 2007).
pEC50, pIC50, pKi: −log10 of the molar value. One block for each compound: values may come before it. Activity calls are given as the source filed them. The calls are words filed in the database; no cut-off is given here.

Experiments:
[1] = Plasma concentration in rat at 30 mg/kg, po after 1 hr; format: ADME, organism-based; parameters: dose 30 mg/kg, route oral
Cytochrome P450 2C9 = Cytochrome P450 2C9 (Homo sapiens, UniProt P11712)
Chain of Cytochrome P450 2C9 (P11712 whole entry): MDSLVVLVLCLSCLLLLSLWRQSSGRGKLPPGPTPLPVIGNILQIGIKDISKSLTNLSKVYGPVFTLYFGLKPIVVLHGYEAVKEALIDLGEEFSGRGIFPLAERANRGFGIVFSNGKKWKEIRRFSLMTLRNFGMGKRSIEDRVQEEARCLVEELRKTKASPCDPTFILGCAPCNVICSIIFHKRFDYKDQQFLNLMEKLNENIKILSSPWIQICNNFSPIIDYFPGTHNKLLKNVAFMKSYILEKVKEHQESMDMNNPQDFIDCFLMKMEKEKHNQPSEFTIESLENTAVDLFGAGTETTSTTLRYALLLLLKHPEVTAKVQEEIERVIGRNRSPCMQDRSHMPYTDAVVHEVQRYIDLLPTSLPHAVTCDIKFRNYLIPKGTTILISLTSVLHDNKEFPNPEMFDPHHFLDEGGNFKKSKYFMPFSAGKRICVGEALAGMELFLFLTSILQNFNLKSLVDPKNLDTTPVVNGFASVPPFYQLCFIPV
Description: Inhibition of CYP2C9 in human liver microsomes

[2] = Drug level in rat brain at 30 mg/kg, po after 1 hr; format: ADME, organism-based; parameters: dose 30 mg/kg, route oral; details: read-out: Drug uptake
[3] = target: T1, Glutamate receptor ionotropic, NMDA 2B (Homo sapiens, UniProt Q05586+Q13224); test: Displacement of [3H](E)-N1-(2-methoxybenzyl)cinnamamidine from human NR2B expressed in Ltk- cells; format: cell-based
T1 sequence (Q13224 whole entry, one chain of several): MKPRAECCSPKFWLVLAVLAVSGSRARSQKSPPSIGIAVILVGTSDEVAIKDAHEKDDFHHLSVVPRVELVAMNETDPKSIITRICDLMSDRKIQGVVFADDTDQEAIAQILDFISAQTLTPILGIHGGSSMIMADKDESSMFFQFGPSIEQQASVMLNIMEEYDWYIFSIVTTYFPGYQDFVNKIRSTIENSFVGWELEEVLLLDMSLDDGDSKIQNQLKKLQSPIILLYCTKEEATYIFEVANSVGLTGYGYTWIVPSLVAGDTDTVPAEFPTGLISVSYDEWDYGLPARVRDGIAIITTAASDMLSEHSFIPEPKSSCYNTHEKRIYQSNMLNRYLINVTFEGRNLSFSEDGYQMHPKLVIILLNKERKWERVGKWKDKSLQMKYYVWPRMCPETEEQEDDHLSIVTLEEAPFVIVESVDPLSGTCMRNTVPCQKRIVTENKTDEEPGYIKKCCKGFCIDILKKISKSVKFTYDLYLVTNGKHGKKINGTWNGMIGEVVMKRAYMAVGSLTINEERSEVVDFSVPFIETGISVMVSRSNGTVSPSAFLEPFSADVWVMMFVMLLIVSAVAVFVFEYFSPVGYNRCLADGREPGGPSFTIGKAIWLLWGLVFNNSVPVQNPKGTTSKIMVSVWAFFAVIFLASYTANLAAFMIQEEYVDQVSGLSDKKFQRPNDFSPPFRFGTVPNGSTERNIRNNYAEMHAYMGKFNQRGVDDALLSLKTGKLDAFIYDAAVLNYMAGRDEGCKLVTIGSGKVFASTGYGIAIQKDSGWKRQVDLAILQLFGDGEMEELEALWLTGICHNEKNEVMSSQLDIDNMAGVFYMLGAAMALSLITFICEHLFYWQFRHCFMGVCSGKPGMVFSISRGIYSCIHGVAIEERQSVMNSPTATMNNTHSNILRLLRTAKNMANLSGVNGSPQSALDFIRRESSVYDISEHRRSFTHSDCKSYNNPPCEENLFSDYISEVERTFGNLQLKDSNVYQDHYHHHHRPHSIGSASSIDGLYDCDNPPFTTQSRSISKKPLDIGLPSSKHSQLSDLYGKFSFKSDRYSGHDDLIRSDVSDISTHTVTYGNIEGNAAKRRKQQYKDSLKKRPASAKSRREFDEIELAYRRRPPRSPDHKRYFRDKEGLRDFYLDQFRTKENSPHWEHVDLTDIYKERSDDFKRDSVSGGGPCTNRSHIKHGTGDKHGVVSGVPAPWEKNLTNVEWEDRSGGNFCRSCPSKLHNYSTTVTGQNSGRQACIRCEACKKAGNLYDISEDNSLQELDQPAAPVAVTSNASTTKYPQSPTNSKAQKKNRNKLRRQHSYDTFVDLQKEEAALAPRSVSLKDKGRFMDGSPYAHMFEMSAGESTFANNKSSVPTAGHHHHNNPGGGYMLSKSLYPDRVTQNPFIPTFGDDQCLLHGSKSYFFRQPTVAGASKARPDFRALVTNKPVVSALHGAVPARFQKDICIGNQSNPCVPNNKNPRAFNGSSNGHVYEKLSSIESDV

Cytochrome P450 2D6 = Cytochrome P450 2D6 (Homo sapiens, UniProt P10635); test: Inhibition of CYP2D6 in human liver microsomes
Chain of Cytochrome P450 2D6 (P10635 whole entry): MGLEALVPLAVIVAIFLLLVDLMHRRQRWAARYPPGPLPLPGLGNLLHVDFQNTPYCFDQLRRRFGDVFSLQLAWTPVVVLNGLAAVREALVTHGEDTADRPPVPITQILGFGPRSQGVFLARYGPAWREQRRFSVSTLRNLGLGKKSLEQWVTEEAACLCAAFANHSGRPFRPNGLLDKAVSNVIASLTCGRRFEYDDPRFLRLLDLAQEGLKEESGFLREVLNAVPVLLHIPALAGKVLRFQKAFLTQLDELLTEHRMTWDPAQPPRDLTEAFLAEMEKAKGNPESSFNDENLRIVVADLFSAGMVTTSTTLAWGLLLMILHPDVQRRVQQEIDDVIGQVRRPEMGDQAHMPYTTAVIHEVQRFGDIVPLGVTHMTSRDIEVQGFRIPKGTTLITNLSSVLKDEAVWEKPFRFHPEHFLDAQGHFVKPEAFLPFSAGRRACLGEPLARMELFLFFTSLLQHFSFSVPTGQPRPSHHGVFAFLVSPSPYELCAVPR

Cytochrome P450 3A4 = Cytochrome P450 3A4 (Homo sapiens, UniProt P08684); test: Inhibition of CYP3A4 in human liver microsomes
Chain of Cytochrome P450 3A4 (P08684 whole entry): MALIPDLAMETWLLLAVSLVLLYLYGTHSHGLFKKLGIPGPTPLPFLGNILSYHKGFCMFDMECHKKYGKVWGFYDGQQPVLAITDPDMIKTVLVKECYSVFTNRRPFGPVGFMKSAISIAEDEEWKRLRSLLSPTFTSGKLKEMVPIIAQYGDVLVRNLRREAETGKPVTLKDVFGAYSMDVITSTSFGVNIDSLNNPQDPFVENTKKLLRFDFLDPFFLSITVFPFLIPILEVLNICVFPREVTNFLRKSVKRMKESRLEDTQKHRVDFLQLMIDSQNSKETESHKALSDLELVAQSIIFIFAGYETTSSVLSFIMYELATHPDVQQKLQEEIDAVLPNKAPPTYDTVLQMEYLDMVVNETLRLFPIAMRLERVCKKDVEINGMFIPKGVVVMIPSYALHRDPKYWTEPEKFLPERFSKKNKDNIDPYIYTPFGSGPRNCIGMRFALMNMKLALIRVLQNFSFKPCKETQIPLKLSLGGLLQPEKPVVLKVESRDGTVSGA

[4] = target: Voltage-gated inwardly rectifying potassium channel KCNH2 (Homo sapiens, UniProt Q12809)
Description: Displacement of [35S]MK-499 from hERG potassium channel expressed in HEK293 cells

[5] = target: Glutamate receptor ionotropic, NMDA 2A (Homo sapiens, UniProt Q05586+Q12879); test: Activity at human NR2A expressed in Ltk- cells by calcium flux assay; format: cell-based
[6] = target: T1, Glutamate receptor ionotropic, NMDA 2B; test: Antagonist activity at human NR2B expressed in Ltk- cells by calcium flux assay; format: functional, cell-based
[7] = Drug level in hyperalgesic rat brain at 1 mg/kg, po after 15 mins; format: ADME, organism-based; parameters: dose 1 mg/kg, route oral; details: read-out: Drug uptake
Rattus norvegicus [8] = test: Reversal of allodynia in rat spinal nerve ligation model at 10 mg/kg, iv; format: functional, organism-based; parameters: dose 10 mg/kg
[9] = Half life in rhesus monkey at 1 mg/kg, iv; format: ADME, organism-based, Macaca mulatta; parameters: dose 1 mg/kg, route intravenous; details: in vivo
Rattus norvegicus [10] = test: Reversal of carrageenan-induced mechanical hyperalgesia in rat at 3 mg/kg, po in presence of indomethacin; format: functional, organism-based; parameters: dose 3 mg/kg
Rattus norvegicus [11] = test: Reversal of carrageenan-induced mechanical hyperalgesia in rat at 10 mg/kg, po after 1 hr; format: functional
[12] = Half life in Sprague-Dawley rat at 2 mg/kg, iv; format: ADME, organism-based; parameters: dose 2 mg/kg, route intravenous; details: in vivo
Rattus norvegicus [13] = test: Reversal of carrageenan-induced mechanical hyperalgesia in iv dosed rat after 15 mins; format: functional
Rattus norvegicus [14] = test: Reversal of allodynia in rat spinal nerve ligation model at 3 mg/kg, iv; format: functional, organism-based; parameters: dose 3 mg/kg
[15] = target: Glutamate receptor ionotropic, NMDA 2C (Homo sapiens) (UniProt Q14957); test: Activity at human NR2C expressed in Ltk- cells by patch clamp assay upto 30 uM; format: cell-based
[16] = Oral bioavailability in Sprague-Dawley rat at 10 mg/kg, po; format: ADME, organism-based; details: in vivo
Rattus norvegicus [17] = test: Effect on allodynia in rat spinal nerve ligation model at 30 mg/kg, po; format: functional, organism-based; parameters: dose 30 mg/kg
Ltk- = test: Activity at human NR1a expressed in Ltk- cells by patch clamp assay upto 30 uM; format: cell-based
Rattus norvegicus [18] = test: Plasma concentration in haloperidol-induced cataleptic rat at 30 mg/kg, po; format: ADME, organism-based; parameters: dose 30 mg/kg, route oral; details: in vivo
[19] = Ratio of drug level in brain against plasma in hyperalgesic rat
[20] = target: Glutamate receptor ionotropic, NMDA 2D (Homo sapiens) (UniProt O15399); test: Activity at human NR2D expressed in Ltk- cells by patch clamp assay upto 30 uM; format: cell-based
Chain of Glutamate receptor ionotropic, NMDA 2D (Homo sapiens) (O15399 whole entry): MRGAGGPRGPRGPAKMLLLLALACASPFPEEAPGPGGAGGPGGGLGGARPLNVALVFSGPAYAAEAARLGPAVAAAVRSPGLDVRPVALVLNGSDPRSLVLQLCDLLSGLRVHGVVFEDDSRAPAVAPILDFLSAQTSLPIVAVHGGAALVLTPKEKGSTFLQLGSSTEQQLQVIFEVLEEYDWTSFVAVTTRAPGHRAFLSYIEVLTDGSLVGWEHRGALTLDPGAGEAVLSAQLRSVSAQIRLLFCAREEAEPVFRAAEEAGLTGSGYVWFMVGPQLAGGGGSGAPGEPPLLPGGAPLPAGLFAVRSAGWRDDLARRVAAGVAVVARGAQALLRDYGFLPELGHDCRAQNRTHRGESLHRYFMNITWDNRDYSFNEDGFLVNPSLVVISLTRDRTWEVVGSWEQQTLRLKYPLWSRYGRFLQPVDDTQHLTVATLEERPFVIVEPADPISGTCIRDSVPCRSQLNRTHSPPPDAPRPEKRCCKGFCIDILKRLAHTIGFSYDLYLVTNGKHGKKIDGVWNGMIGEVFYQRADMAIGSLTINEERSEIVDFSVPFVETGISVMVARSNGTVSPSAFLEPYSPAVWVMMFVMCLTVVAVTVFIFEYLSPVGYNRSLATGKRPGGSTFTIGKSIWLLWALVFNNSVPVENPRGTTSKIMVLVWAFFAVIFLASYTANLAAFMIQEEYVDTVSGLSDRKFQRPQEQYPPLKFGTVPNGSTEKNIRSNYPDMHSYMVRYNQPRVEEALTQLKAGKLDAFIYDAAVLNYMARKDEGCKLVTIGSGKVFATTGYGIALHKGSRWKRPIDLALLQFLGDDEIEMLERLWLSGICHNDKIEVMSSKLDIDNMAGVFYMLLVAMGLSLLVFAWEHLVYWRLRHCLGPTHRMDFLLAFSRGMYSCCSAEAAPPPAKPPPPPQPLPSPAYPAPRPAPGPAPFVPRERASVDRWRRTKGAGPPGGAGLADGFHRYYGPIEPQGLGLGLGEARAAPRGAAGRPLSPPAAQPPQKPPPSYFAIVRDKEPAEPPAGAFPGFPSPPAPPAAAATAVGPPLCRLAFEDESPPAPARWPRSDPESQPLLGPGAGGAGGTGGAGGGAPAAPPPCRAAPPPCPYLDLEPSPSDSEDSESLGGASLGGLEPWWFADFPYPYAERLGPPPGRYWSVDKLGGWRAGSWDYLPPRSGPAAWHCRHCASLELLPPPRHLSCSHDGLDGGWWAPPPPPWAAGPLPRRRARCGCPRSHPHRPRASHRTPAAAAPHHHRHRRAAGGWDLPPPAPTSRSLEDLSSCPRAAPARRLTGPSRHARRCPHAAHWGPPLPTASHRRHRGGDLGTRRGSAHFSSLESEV

Canis familiaris = test: AUC in Beagle dog at 1 mg/kg, iv; format: ADME, organism-based, Canis lupus familiaris, Plasma; parameters: dose 1 mg/kg, route intravenous; details: in vivo
[21] = Cmax in Beagle dog at 1 mg/kg, po; format: ADME, organism-based, Canis lupus familiaris; parameters: dose 1 mg/kg, route oral; details: in vivo
Rhesus monkey = test: AUC in rhesus monkey at 1 mg/kg, iv; format: ADME, organism-based, Macaca mulatta, Plasma; parameters: dose 1 mg/kg, route intravenous; details: in vivo
[22] = Cmax in Sprague-Dawley rat at 10 mg/kg, po; format: ADME, organism-based; parameters: dose 10 mg/kg, route oral; details: in vivo
[23] = Plasma protein binding in rat; format: ADME, cell-free; details: read-out: PPB (converted)
[24] = target: Glutamate receptor ionotropic, NMDA 2A (Homo sapiens) (UniProt Q12879); test: Activity at human NR2A expressed in Ltk- cells by patch clamp assay upto 30 uM; format: cell-based
[25] = Half life in Beagle dog at 1 mg/kg, iv; format: ADME, organism-based, Canis lupus familiaris; parameters: dose 1 mg/kg, route intravenous; details: in vivo
[26] = Drug level in hyperalgesic rat plasma at 1 mg/kg, po after 15 mins; format: ADME, organism-based; parameters: dose 1 mg/kg, route oral
Rattus norvegicus [27] = test: Reversal of carrageenan-induced mechanical hyperalgesia in rat at 3 mg/kg, po in presence of morphine; format: functional, organism-based; parameters: dose 3 mg/kg
[28] = Drug level in hyperalgesic rat plasma at 10 mg/kg, po after 1 hr; format: ADME, organism-based; parameters: dose 10 mg/kg, route oral
[29] = Oral bioavailability in rhesus monkey at 1 mg/kg, po; format: ADME, organism-based, Macaca mulatta; details: in vivo
[30] = target: Glutamate receptor ionotropic, NMDA 2B (Rattus norvegicus) (UniProt Q00960); test: Receptor occupancy ex vivo by displacement of [3H](E)-N1-(2-methoxybenzyl)-cinnamamidine binding from NR2B in rat brain at 10 uM; format: tissue-based
Rattus norvegicus [31] = test: […] in rat measured as motor impairment upto 100 mg/kg, po by rotarod assay; format: functional, organism-based; parameters: dose 100 mg/kg
[32] = Oral bioavailability in Beagle dog at 1 mg/kg, po; format: ADME, organism-based, Canis lupus familiaris; details: in vivo
[33] = Drug level in hyperalgesic rat brain at 10 mg/kg, po after 1 hr; format: ADME, organism-based; parameters: dose 10 mg/kg, route oral; details: read-out: Drug uptake
Rattus norvegicus [34] = test: AUC in Sprague-Dawley rat at 2 mg/kg, iv; format: ADME, organism-based, Plasma; parameters: dose 2 mg/kg, route intravenous; details: in vivo
[35] = Cmax in rhesus monkey at 1 mg/kg, po; format: ADME, organism-based, Macaca mulatta; parameters: dose 1 mg/kg, route oral; details: in vivo

SMILES: O=C(OCc1ccccc1)N1CCC(CNc2ccncn2)CC1
concentration at 1 h [1]: 1100 nM
pIC50 (Cytochrome P450 2C9): 6.30
concentration at 1 h [2]: 700 nM
pKi [3]: 7.12
pIC50 (Cytochrome P450 2D6): 5.89

SMILES: O=C(CCc1ccccc1)N1CCC(CNc2ncccn2)CC1
pKi [3]: 6.51

SMILES: CC(OC(=O)N1CCC(CNc2ncccn2)CC1)c1ccccc1 (racemic)
pKi [3]: 6.27

SMILES: c1ccc(CCCN2CCC(CNc3ncccn3)CC2)cc1
pKi [3]: 6.58

SMILES: O=C(OCc1cccc(F)c1)N1CCC(CNc2ncccn2)CC1
pKi [3]: 6.82

SMILES: Cc1ccc(COC(=O)N2CCC(CNc3ncccn3)CC2)cc1
concentration at […] [7]: 510 nM
Activity (Rattus norvegicus [8]): Active
half-life [9]: 2.2 h
Activity (Rattus norvegicus [10]): Active
Activity (Rattus norvegicus [11]): 50%
half-life [12]: 2.7 h
ED50 (Rattus norvegicus [13]): 1 mg/kg
Activity (Rattus norvegicus [14]): Active
Activity [15]: < 30%
bioavailability [16]: 45%
Activity (Rattus norvegicus [17]): Active
Activity (Ltk-): < 30%
concentration (Rattus norvegicus [18]): 10200 nM
Kp [19]: 1.4
Activity [20]: < 30%
AUC (Canis familiaris): 7.5 µM·h
Cmax [21]: 840 nM
AUC (Rhesus monkey): 5.2 µM·h
Cmax [22]: 3900 nM
fraction unbound [23]: 0.153
Activity [24]: < 30%
half-life [25]: 6.9 h
concentration at […] [26]: 960 nM
Activity (Rattus norvegicus [27]): Active
concentration at 1 h [28]: 1800 nM
bioavailability [29]: 26%
Activity [30]: Active
Activity (Rattus norvegicus [31]): inactive
pEC50 [6]: 8.25
pKi [3]: 8.47
bioavailability [32]: 24%
concentration at 1 h [33]: 850 nM
AUC (Rattus norvegicus [34]): 7.1 µM·h
Cmax [35]: 600 nM

More lines, main results first:

pKi [3]: 6.64
SMILES: O=C(OCCc1ccccc1)N1CCC(CNc2ncccn2)CC1

pKi [3]: 6.64
SMILES: Cc1ccccc1COC(=O)N1CCC(CNc2ncccn2)CC1

pKi [3]: 6.72
pIC50 (Cytochrome P450 2D6): < 4.60
SMILES: O=C(OCc1ccccc1)N1CCC(CNc2nncs2)CC1

pKi [3]: 7.74
SMILES: O=C(OCc1ccccc1F)N1CCC(CNc2ncccn2)CC1

concentration at 1 h [1]: 180 nM
pIC50 (Cytochrome P450 3A4): < 4.60
pIC50 (Cytochrome P450 2C9): < 4.60
concentration at 1 h [2]: 170 nM
pKi [3]: 7.43
pIC50 (Cytochrome P450 2D6): < 4.60
SMILES: O=C(OCc1ccccc1)N1CCC(CNc2ccccn2)CC1

pIC50 [5]: < 4.70
pIC50 [6]: 6.99
pKi [3]: 7.03
SMILES: c1ccc(COc2ccc(CCNc3ccncc3)cc2)cc1
pIC50 [4]: 6.89

pIC50 (Cytochrome P450 3A4): < 5.00
pIC50 (Cytochrome P450 2C9): < 5.00
pKi [3]: 6.91
pIC50 (Cytochrome P450 2D6): < 5.00
SMILES: O=C(OCc1ccccc1)N1CCC(CNc2nccs2)CC1

pKi [3]: 8.43
SMILES: CCc1ccc(COC(=O)N2CCC(CNc3ncccn3)CC2)cc1

concentration at 1 h [1]: 7200 nM
pIC50 (Cytochrome P450 3A4): < 4.60
pIC50 (Cytochrome P450 2C9): < 4.60
concentration at 1 h [2]: 3100 nM
pKi [3]: 7.64
pIC50 (Cytochrome P450 2D6): < 4.60
SMILES: O=C(OCc1ccccc1)N1CCC(CNc2ncccn2)CC1
